In patent publication US20070270461A1, “Fungicide” (Valent BioSciences Corporation, priority 2006, published 2007):

Experiments:
Botrytis cinerea [1] = assay: Contact evaluation (microtiter plate); type: cell-based
Experimental: (§1) Compound solution: Contact evaluations were conducted to determine the anti-fungal activity of each compound against Botrytis cinerea, Sclerotinia sclerotiorum, Pythium aphanidermatum, Rhizoctonia solani, Cercospora arachidicola, Mycosphaerella fijiensis, and Monilinia laxa. Five milligrams of each compound were dissolved in 0.5 milliliter of DMSO for a compound stock solution of 1.0% w/v. Compound stock solutions were serial diluted with DMSO to 20, 10, and 2 ppm final well concentration.
(§2) Fungi preparation: Botrytis cinerea spores were taken from 6-week-old cultures grown at 22 C on full strength potato dextrous agar (PDA) plates. Sclerotinia sclerotiorum, Pythium aphanidermatum, Rhizoctonia solani, and Monilinia laxa mycelia were taken from 4- to 10-day-old shake flask cultures grown at room temperature on full strength potato dextrous broth (PDB). Cercospora arachidicola mycelia were taken from 10- to 14-day-old shake flask cultures grown at room temperature on a full strength PDB amended with peanut oil. Mycosphaerella fijiensis mycelia were taken from 10- to 14-day-old shake flask cultures grown at room temperature on V8 juice broth. Sclerotinia sclerotiorum, Pythium aphanidermatum, Rhizoctonia solani, Cercospora arachidicola, and Mycosphaerella fijiensis mycelia (0.4 g mycelia) were blended for 45 seconds in 20 mL sterile de-ionized water. Monilinia laxa mycelia (1 g mycelia) was blended for 45 seconds in 30 mL of sterile de-ionized water. Botrytis cinerea spores were diluted with quarter strength PDB to 1×10^5 spores/mL final well concentration. All mycelia were diluted in water (1:5 mycelia:water) before distributing into the wells.
(§3) Microtiter plate preparation: Compound solution (10 :L), quarter strength PDB (900 :L) and fungi preparation (100 :L) were sequentially distributed into 48-well microtiter plates (n=3 replications/compound/rate). A blank consisted of quarter strength PDB and fungi preparation. Commercial fungicide controls (100 ppm diluted with water) consisted of Scala for Botrytis cinerea, Dithane F-45 for Mycosphaerella fijiensis, and Benlate for Sclerotinia sclerotiorum, Pythium aphanidermatum, Rhizoctonia solani, Cercospora arachidicola, and Monilinia laxa. Plates were shaken in a circular rotator at room temperature for 20 minutes, then incubated at 25 C for 24 to 72 hours, depending on the pathogen.
(§4) Fungal control ratings: Fungal growth in wells containing the compounds were compared to the positive control and fungal inhibition was rated as full, partial, or none. Final readings were the average of the three wells (Table 1).

Cercospora arachidicola = assay: Contact evaluation (microtiter plate); type: cell-based
Experimental: as §1, §2, §3, §4

Monilinia laxa = assay: Contact evaluation (microtiter plate); type: cell-based
Experimental: as §1, §2, §3, §4

Mycosphaerella fijiensis = assay: Contact evaluation (microtiter plate); type: cell-based
Experimental: as §1, §2, §3, §4

Pythium aphanidermatum = assay: Contact evaluation (microtiter plate); type: cell-based
Experimental: as §1, §2, §3, §4

Rhizoctonia solani = assay: Contact evaluation (microtiter plate); type: cell-based; settings: Rhizoctinia solani
Experimental: as §1, §2, §3, §4

Sclerotinia sclerotiorum = assay: Contact evaluation (microtiter plate); type: cell-based; settings: Sclerotinia sclerotionum
Experimental: as §1, §2, §3, §4

Botrytis cinerea [2] = assay: Detached bean leaf bioassay, fungal control; type: in vivo; settings: 200 ppm on detached bean leaf; 100 minus percent necrotic area, three days after inoculation
Experimental: Compound solution: Compound solutions were prepared by diluting compound stock solutions (1.0% w/v compound in DMSO) to 200 ppm with 0.01% w/v Triton X-100. Spore solution preparation: Botrytis cinerea spores were taken from 6-week-old cultures grown at 22 C on full strength potato dextrous agar (PDA) plates and harvested in 1:16 frozen orange juice concentrate:water. Botrytis cinerea spore solutions were prepared by diluting spore cultures to 5×10^4 spores/mL with 1:16 frozen orange juice concentrate:water. Plant material: Middle trifoliate leaves of greenhouse grown Phaseolus vulgaris (Bush bean cv. Blue Lake 274) were excised and placed on a plastic grid above a tray containing moist towels. Treatment method: One half of the adaxial surface of the leaf was treated with the compound solution (100 :L) using a 3 cm Bacti Cell Spreader. A blank consisted of 0.01% w/v Triton X-100. A commercial fungicide control (200 ppm diluted with water) consisted of Scala. […] Fungal control rating: Three days after inoculation with Botrytis, the percent necrotic area under the inoculation droplet was determined. Since the areas under the blank (0.01% w/v Triton X-100) were 100% infected, fungal control was expressed as 100 minus the percent necrotic area, and thus 0% infected is 100% fungal control (n=3 leaves/compound, 5 inoculation droplets/leaf, Table 2).

[3] = test system: Phaseolus vulgaris (Bush bean cv. Blue Lake 274) leaves; assay: Detached bean leaf bioassay, phytotoxicity rating; type: in vivo; settings: 200 ppm on detached bean leaf; rated no, slight, moderate or excessive phytotoxicity
Experimental: Compound solution: Compound solutions were prepared by diluting compound stock solutions (1.0% w/v compound in DMSO) to 200 ppm with 0.01% w/v Triton X-100. Plant material: Middle trifoliate leaves of greenhouse grown Phaseolus vulgaris (Bush bean cv. Blue Lake 274) were excised and placed on a plastic grid above a tray containing moist towels. Treatment method: One half of the adaxial surface of the leaf was treated with the compound solution (100 :L) using a 3 cm Bacti Cell Spreader. A blank consisted of 0.01% w/v Triton X-100. A commercial fungicide control (200 ppm diluted with water) consisted of Scala. After the solutions dried, the trays containing the leaves were covered and held one day in a growth chamber (22 C). The adaxial surfaces of the leaves were then inoculated with 5-60 :L droplets of Botrytis cinerea spore solution. Phytotoxicity ratings: Phytotoxicity was rated as 0=no phytotoxicity, 1=slight phytotoxicity, 2=moderate phytotoxicity, or 3=excessive phytotoxicity (Table 2).

## OCCOc1c(Br)cc(Br)c2cccnc12 [Example 1, 5,7-dibromo-8-(2-hydroxyethoxy) quinoline]
Botrytis cinerea [1]; fungicide rate 2 ppm
  Control of fungi (full, partial, none): Partial
Botrytis cinerea [1]; fungicide rate 10 ppm
  Control of fungi (full, partial, none): Full
Botrytis cinerea [1]; fungicide rate 20 ppm
  Control of fungi (full, partial, none): Full
Cercospora arachidicola; fungicide rate 2 ppm
  Control of fungi (full, partial, none): None
Cercospora arachidicola; fungicide rate 10 ppm
  Control of fungi (full, partial, none): Full
Cercospora arachidicola; fungicide rate 20 ppm
  Control of fungi (full, partial, none): Full
Monilinia laxa; fungicide rate 2 ppm
  Control of fungi (full, partial, none): Full
Monilinia laxa; fungicide rate 10 ppm
  Control of fungi (full, partial, none): Full
Monilinia laxa; fungicide rate 20 ppm
  Control of fungi (full, partial, none): Full
Mycosphaerella fijiensis; fungicide rate 2 ppm
  Control of fungi (full, partial, none): Full
Mycosphaerella fijiensis; fungicide rate 10 ppm
  Control of fungi (full, partial, none): Full
Mycosphaerella fijiensis; fungicide rate 20 ppm
  Control of fungi (full, partial, none): Full
Pythium aphanidermatum; fungicide rate 2 ppm
  Control of fungi (full, partial, none): Full
Pythium aphanidermatum; fungicide rate 10 ppm
  Control of fungi (full, partial, none): Full
Pythium aphanidermatum; fungicide rate 20 ppm
  Control of fungi (full, partial, none): Full
Rhizoctonia solani; fungicide rate 2 ppm
  Control of fungi (full, partial, none): Full
Rhizoctonia solani; fungicide rate 10 ppm
  Control of fungi (full, partial, none): Full
Rhizoctonia solani; fungicide rate 20 ppm
  Control of fungi (full, partial, none): Full
Sclerotinia sclerotiorum; fungicide rate 2 ppm
  Control of fungi (full, partial, none): Full
Sclerotinia sclerotiorum; fungicide rate 10 ppm
  Control of fungi (full, partial, none): Full
Sclerotinia sclerotiorum; fungicide rate 20 ppm
  Control of fungi (full, partial, none): Full
Botrytis cinerea [2]
  Botrytis cinerea control (200 ppm): 100%
[3]
  Phytotoxity (200 ppm): Slight
other
  melting point: 128 to 131 °C
